Structures are written as SMILES.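 Test compounds were applied to cells in 96-well plates for 48 hours at 5 doses. Abbreviation: GI50, concentration required for 50% inhibition of growth.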 Active and inactive are the calls of the source. Rule as the data show it: active = GI50 up to about 1.1 µM and inactive = higher.

Among the test systems are HCT-15; HL-60; HOP-92; K562; KM12; LOX IMVI; MCF7; NCI-H522; OVCAR-3; OVCAR-4; OVCAR-5; RXF 393; SK-MEL-2; SK-MEL-5; SK-OV-3; SW-620; UO-31; PC-3; TK-10; ACHN.
Test in all cases: NCI-60 cell line screen, 48 h

For `O=[N+]([O-])c1ccc(/C=C/c2ccc(/N=N/c3ccc(/C=C/c4ccc([N+](=O)[O-])cc4S(=O)(=O)O)c(S(=O)(=O)O)c3)cc2S(=O)(=O)O)c(S(=O)(=O)O)c1`, the GI50 in the experiment with HCT-15 was above 63.7 µM; in the experiment with HL-60, > 100 µM (inactive); in the experiment on HOP-92, > 53.1 µM (inactive); with K562 it was > 100 µM (inactive); in the experiment on KM12, > 100 µM (inactive); in the experiment on LOX IMVI it was > 100 µM (inactive). The GI50 in the experiment on MCF7 was > 100 µM (inactive); with NCI-H522, > 100 µM (inactive); in the experiment on OVCAR-3, > 87.5 µM (inactive); in the experiment with OVCAR-4 it was > 56.8 µM (inactive); in the experiment with OVCAR-5, > 100 µM (inactive); with RXF 393, > 100 µM (inactive). Moreover, the GI50 in the experiment with SK-MEL-2, in the experiment on SK-MEL-5, in the experiment on SK-OV-3, with SW-620 and with UO-31 was > 100 µM (inactive) in each case.

Turning to `[N-]=[N+]=NC[C@H]1OCO[C@H](CN=[N+]=[N-])[C@H]2OCCOCCOc3ccccc3OCCOCCO[C@@H]21`, the GI50 with HCT-15 was above 100 µM; in the experiment with HL-60 it was > 100 µM (inactive); in the experiment on K562, > 100 µM (inactive); in the experiment with KM12 it was > 100 µM (inactive); in the experiment with LOX IMVI, > 100 µM (inactive); in the experiment with MCF7, > 100 µM (inactive). Moreover, the GI50 in the experiment with NCI-H522, with OVCAR-3, in the experiment with OVCAR-4, in the experiment with PC-3, in the experiment with RXF 393 and in the experiment with SK-MEL-2 was > 100 µM (inactive) in each case. Besides, the GI50 with SK-MEL-5 is > 100 µM (inactive); with SK-OV-3, > 100 µM (inactive); with SW-620, > 100 µM (inactive); with TK-10, > 100 µM (inactive); with UO-31, 10.1 µM (inactive).

For the compound `CCOC(=O)O/C(=C\c1ccc(OC)cc1)c1c(OC(=O)OCC)n(C(=O)OCC)c2ccccc12`, the GI50 is 29.1 µM (inactive) in the experiment on ACHN; 7.05 µM in the experiment on HCT-15; > 100 µM (inactive) in the experiment on HL-60; 2.77 µM (inactive) with K562; 7.83 µM (inactive) with KM12; 42.3 µM (inactive) in the experiment on LOX IMVI. The GI50 was 25.1 µM (inactive) in the experiment with MCF7; 59.4 µM (inactive) with OVCAR-3; 32.4 µM (inactive) in the experiment on OVCAR-4; 76.9 µM (inactive) with OVCAR-5; 29.2 µM (inactive) with PC-3; 19.8 µM (inactive) with RXF 393. Also, the GI50 is 35 µM (inactive) in the experiment with SK-MEL-2; 39 µM (inactive) with SK-MEL-5; 41.5 µM (inactive) in the experiment on SK-OV-3; 24.3 µM (inactive) in the experiment with SW-620; 31.3 µM (inactive) in the experiment on TK-10; 29.1 µM (inactive) in the experiment on UO-31.

For the compound `Cc1ccc(S(=O)(=O)NC(C(=O)O)C(C)C)cc1` (stereo not drawn), the GI50 with ACHN was > 100 µM (inactive); in the experiment on HCT-15, above 100 µM; in the experiment on HOP-92, > 100 µM (inactive); in the experiment on K562 it was > 100 µM (inactive); with KM12 it was > 100 µM (inactive); in the experiment on LOX IMVI, > 100 µM (inactive). Moreover, the GI50 in the experiment with NCI-H522, with OVCAR-3, in the experiment on OVCAR-4, in the experiment with OVCAR-5, in the experiment on PC-3 and in the experiment with RXF 393 was > 100 µM (inactive) each time. The GI50 in the experiment on SK-MEL-2, in the experiment with SK-MEL-5, with SW-620, with TK-10 and with UO-31 was > 100 µM (inactive) throughout.

As to `Nc1nc2[nH]c(=O)cnc2c(=O)[nH]1` [ISOXANTHOPTERIN], the GI50 with HCT-15 was above 78.9 µM; with HL-60, > 125 µM (inactive); with HOP-92, > 125 µM (inactive); with K562, > 125 µM (inactive); in the experiment with KM12, > 125 µM (inactive); in the experiment on LOX IMVI it was > 125 µM (inactive). Besides, the GI50 is > 125 µM (inactive) in the experiment on MCF7; > 19.8 µM (inactive) with NCI-H522; > 125 µM (inactive) in the experiment with OVCAR-3; > 125 µM (inactive) in the experiment with OVCAR-4; > 99.1 µM (inactive) in the experiment with OVCAR-5; > 125 µM (inactive) in the experiment with RXF 393. Besides, the GI50 in the experiment on SK-MEL-2, in the experiment with SK-MEL-5, in the experiment with SK-OV-3, in the experiment with SW-620 and in the experiment with UO-31 was > 125 µM (inactive) in each case.

Regarding `O=NN1C(c2ccccc2)C2CCCC(C2=O)C1c1ccccc1` (stereo not drawn), the GI50 is 29.3 µM in the experiment with HCT-15; 19.3 µM (inactive) in the experiment with HL-60; 22 µM (inactive) in the experiment on HOP-92; 21.1 µM (inactive) with K562; 32.5 µM (inactive) in the experiment on KM12; 22.9 µM (inactive) with LOX IMVI. For the same compound, the GI50 with MCF7 was 20.7 µM (inactive); with NCI-H522 it was 19.1 µM (inactive); in the experiment with OVCAR-3 it was 4.82 µM (inactive); in the experiment on OVCAR-4, 23.9 µM (inactive); with OVCAR-5, 37.2 µM (inactive); in the experiment with RXF 393 it was 18.9 µM (inactive). Besides, the GI50 with SK-MEL-2 was 20.2 µM (inactive); in the experiment on SK-MEL-5, 18.7 µM (inactive); in the experiment with SK-OV-3, 24.5 µM (inactive); with SW-620, 43.9 µM (inactive); in the experiment with UO-31, 22.9 µM (inactive).

In the case of `CSc1nc2c(ncn2C2OC(CO)C(O)C(O)C2O)c(=O)n1C` (stereo not drawn), the GI50 in the experiment on HCT-15 was above 100 µM; with HL-60, > 100 µM (inactive); in the experiment on HOP-92, > 100 µM (inactive); in the experiment on K562, > 100 µM (inactive); in the experiment with KM12 it was > 100 µM (inactive); in the experiment on LOX IMVI, > 100 µM (inactive). Besides, the GI50 in the experiment with MCF7, in the experiment with NCI-H522, with OVCAR-3, in the experiment with OVCAR-4, with OVCAR-5 and with RXF 393 was > 100 µM (inactive) each time. Also, the GI50 with SK-MEL-2, in the experiment on SK-MEL-5, in the experiment with SK-OV-3, in the experiment on SW-620 and in the experiment with UO-31 was > 100 µM (inactive) each time.

Take `COC(OC)(c1ccccc1)C(Br)Br`: the GI50 in the experiment with ACHN is > 100 µM (inactive); with HCT-15, 17.1 µM; in the experiment with HL-60, 23.6 µM (inactive); with K562 it was 13.9 µM (inactive); with KM12, > 100 µM (inactive); with LOX IMVI it was 28.2 µM (inactive). The GI50 was 39 µM (inactive) with MCF7; 17.8 µM (inactive) in the experiment on NCI-H522; 48.3 µM (inactive) with OVCAR-3; > 100 µM (inactive) with OVCAR-5; > 100 µM (inactive) with PC-3; > 100 µM (inactive) with SK-MEL-2. Further, the GI50 is 67.5 µM (inactive) in the experiment with SK-MEL-5, > 100 µM (inactive) in the experiment with SK-OV-3, 15.8 µM (inactive) in the experiment on SW-620 and > 100 µM (inactive) in the experiment on UO-31.

For `O=P(O)(Cc1ccccc1)c1ccccc1-c1ccccc1`, the GI50 in the experiment on ACHN is > 100 µM (inactive); in the experiment with HCT-15, above 100 µM; in the experiment on HL-60, > 100 µM (inactive); in the experiment with K562, > 100 µM (inactive); with KM12, 77.3 µM (inactive); in the experiment on LOX IMVI it was > 100 µM (inactive). The GI50 with MCF7 is > 100 µM (inactive); in the experiment with NCI-H522 it was > 100 µM (inactive); in the experiment with OVCAR-4, > 100 µM (inactive); in the experiment with OVCAR-5, > 100 µM (inactive); with PC-3, > 100 µM (inactive); in the experiment on RXF 393, 54.6 µM (inactive). Also, the GI50 in the experiment with SK-MEL-2, in the experiment on SK-MEL-5, with SK-OV-3, in the experiment with SW-620, in the experiment on TK-10 and in the experiment with UO-31 was > 100 µM (inactive) in each case.

For the compound `NC(CCCCNC(=O)C(Cc1ccccc1)NC(=O)OCc1ccccc1)C(=O)NC(CCCCNC(=O)C(Cc1ccccc1)NC(=O)OCc1ccccc1)C(=O)NC(CCCCNC(=O)C(Cc1ccccc1)NC(=O)OCc1ccccc1)C(=O)NC(CCCCNC(=O)C(Cc1ccccc1)NC(=O)OCc1ccccc1)C(=O)NC(CCCCNC(=O)C(Cc1ccccc1)NC(=O)OCc1ccccc1)C(=O)NC(CCCCNC(=O)C(Cc1ccccc1)NC(=O)OCc1ccccc1)C(=O)O` (stereo not drawn), the GI50 in the experiment on ACHN was > 100 µM (inactive); in the experiment with HCT-15 it was above 100 µM; with HL-60 it was > 100 µM (inactive); in the experiment on K562 it was > 100 µM (inactive); in the experiment on LOX IMVI it was > 100 µM (inactive); in the experiment with MCF7, > 100 µM (inactive). Besides, the GI50 in the experiment with NCI-H522, in the experiment on OVCAR-3, with OVCAR-4, in the experiment with OVCAR-5, with PC-3 and in the experiment on SK-MEL-2 was > 100 µM (inactive) throughout. For the same compound, the GI50 with SK-MEL-5, in the experiment on SW-620, with TK-10 and with UO-31 was > 100 µM (inactive) throughout.

On to `CC(C)=CC1CC(=[N+]=[N-])C(=O)C1(C)C` (stereo not drawn), for which the GI50 was > 100 µM (inactive) with ACHN; 86.5 µM with HCT-15; > 100 µM (inactive) with HL-60; > 80.7 µM (inactive) with HOP-92; > 71.1 µM (inactive) in the experiment with K562; > 100 µM (inactive) in the experiment on KM12. Further, the GI50 was > 75.7 µM (inactive) in the experiment on LOX IMVI; > 80.7 µM (inactive) with NCI-H522; > 100 µM (inactive) with OVCAR-3; > 100 µM (inactive) in the experiment with OVCAR-4; > 100 µM (inactive) with OVCAR-5; > 31.6 µM (inactive) in the experiment on RXF 393. Besides, the GI50 is > 100 µM (inactive) in the experiment with SK-MEL-2; > 100 µM (inactive) with SK-MEL-5; > 100 µM (inactive) in the experiment with SK-OV-3; > 100 µM (inactive) with SW-620; > 100 µM (inactive) in the experiment with TK-10; > 59 µM (inactive) in the experiment on UO-31.

Source of the values: ChEMBL document CHEMBL1201862, “PubChem BioAssay data set” (2004).
